The results in this text go back to article PMC9832347 (2023).

This assay has as its system Probe DNA / complementary DNA (porcine) hybrid (DNA, duplex) CTGATAGTAGATTTGTGATGACCGTAGCCC/CTACGGTCATCACAAATCTACTATCAG
Put plainly: differential pulse voltammetry, redox indicator on DNA electrode. The following applies: 30 μM 2b mixed with complementary DNA 1 × 10^-8 M; buffer wash; peak 1.45 μA; qualitative.

Structures are written as SMILES.

For the molecule `CC1=NCCNC(C)(C)CC(C)=NCCNC(C)(C)C1.[Cu+2]`, the binding entry is “yes”.
